The values below come from patent US20260071220A1, “CONJUGATE OF NUCLEOTIDE ANALOG-CONTAINING DOUBLE-STRANDED RNAI ANALOG” (BaseCure Therapeutics LLC, priority 2022, published 2026).

Where “and” joins values, the source holds several entries; their conditions need not be identical. Equal values may be shown once. In the oligonucleotide strings, read from the 5' end, every base follows the letter of its sugar. An asterisk marks phosphorothioate; unmarked linkages are phosphodiester. Other units and linkages are bracketed, terminal groups are in braces. A string of capitals states the bases alone. {D01} = GalNAc ligand D01, attached to sense strand by a phosphodiester bond; m = 2'-O-methyl; f = 2'-fluoro

The test system of series [1] is HEK BLUE hTLR7. Put plainly: Cell activity detection (CellTiter-Glo) in hTLR7 cells. The format is cell-based, human. Particulars: 24 h, maximum concentration 200 nM, read-out: CC50. How it is done: (§1) 1) The conjugate of the present invention was diluted to a concentration that was 20 times a final concentration, the diluted conjugate was mixed with RNAiMAX-OPTI MEM (RNAiMAX:OPTI MEM=3:47) at a ratio of 1:1 and incubated for 15 min at room temperature.
(§2) 2) 10 μL of incubated conjugate of the present invention was added into a corresponding cell plate, with 10 concentrations in total, a maximum concentration being 200 nM, and double duplicated wells for each concentration.
(§3) 4) 90 μL of cells were seeded into a 96-well plate with the conjugate at the density of 50,000 cells/well.
(§4) 5) The conjugate of the present invention and the cells were co-incubated for 24 h in an incubator under the conditions of 37° C. and 5% CO2.
8) Cell activity detection: the operation was carried out according to the method in the Celltiter-Glo specification, and a chemiluminescence signals (RLU) were detected using the multifunctional microplate reader Flexstation III.
(§5) Compound activity: the OD650 values were analyzed using GraphPad Prism software, and a dose effect curve of the compound was fit, and the EC50 value of the compound was calculated. Cell activity detection: the calculation formula of cell activity % was as follows. The cell activity % value was analyzed using GraphPadPrism software, the dose effect curve of the compound was fit, and the CC50 value of the compound on cell was calculated.

For series [2], the system named is AGT mRNA. Put plainly: Mouse hAGT HDI model (liver AGT mRNA). The class given is in vivo. Particulars: 5 mg/kg single s.c. dose, liver on Day 4; for AGT mRNA expression of mouse liver after administration/before administration, Average: group average (4 mice); for AGT mRNA expression of mouse liver after administration/before administration: individual animal, 5 mg/kg. The protocol:
The targeting of a target gene in a sample to be tested and the inhibitory effect on the target gene were evaluated by a mouse model injected with pcDNA-CMV-AGT plasmids via tail vein at high pressure.
pcDNA-CMV-AGT plasmids, BALB/c female mice, DPBS (Dulbecco's phosphate buffer solution), and a conjugate of the present invention.
6 to 8-week-old BALB/c female mice were purchased, and the mice were adapted to quarantine for one week after arriving at an animal room.
On Day 0, the mice were divided into groups at random according to weight data, with 4 mice in each group, all the mice were dosed subcutaneously after grouping, with a single dose at 10 mL/kg. The mice in group 1 were dosed with DPBS; the mice in group 2 were dosed with AD-85481 at the dose of 5 mg/kg; the mice in group 3 were dosed with the conjugate 3 of the present invention at the dose of 5 mg/kg; the group 4 was dosed with the conjugate 2 of the present invention at the dose of 5 mg/kg.
On Day 3 after administration, all the mice were injected with the pcDNA-CMV-AGT plasmids at a volume of 8% of their weight via the tail vein within 5 s (injection volume (mL)=mouse weight (g)×8%). The mass of the plasmids injected into each mouse was 10 μg.
On Day 4 after administration, all groups of mice were euthanized by CO2 inhalation, and 2 liver samples were collected from each mouse. The liver samples were treated with RNAlater at 4° C. overnight, then RNAlater was removed, and subsequently the samples without RNAlater were stored at −80° C. for detecting the expression level of AGT genes.
4. In the table, the data represent AGT mRNA expression of mouse liver after administration/AGT mRNA expression of mouse liver before administration, […]

Series [3] addresses T1, hTLR3 (Homo sapiens, UniProt O15455).
T1 construct: host or cells: HEK BLUE hTLR3 (HEK293-derived SEAP reporter line)
T1 sequence (O15455 24-904): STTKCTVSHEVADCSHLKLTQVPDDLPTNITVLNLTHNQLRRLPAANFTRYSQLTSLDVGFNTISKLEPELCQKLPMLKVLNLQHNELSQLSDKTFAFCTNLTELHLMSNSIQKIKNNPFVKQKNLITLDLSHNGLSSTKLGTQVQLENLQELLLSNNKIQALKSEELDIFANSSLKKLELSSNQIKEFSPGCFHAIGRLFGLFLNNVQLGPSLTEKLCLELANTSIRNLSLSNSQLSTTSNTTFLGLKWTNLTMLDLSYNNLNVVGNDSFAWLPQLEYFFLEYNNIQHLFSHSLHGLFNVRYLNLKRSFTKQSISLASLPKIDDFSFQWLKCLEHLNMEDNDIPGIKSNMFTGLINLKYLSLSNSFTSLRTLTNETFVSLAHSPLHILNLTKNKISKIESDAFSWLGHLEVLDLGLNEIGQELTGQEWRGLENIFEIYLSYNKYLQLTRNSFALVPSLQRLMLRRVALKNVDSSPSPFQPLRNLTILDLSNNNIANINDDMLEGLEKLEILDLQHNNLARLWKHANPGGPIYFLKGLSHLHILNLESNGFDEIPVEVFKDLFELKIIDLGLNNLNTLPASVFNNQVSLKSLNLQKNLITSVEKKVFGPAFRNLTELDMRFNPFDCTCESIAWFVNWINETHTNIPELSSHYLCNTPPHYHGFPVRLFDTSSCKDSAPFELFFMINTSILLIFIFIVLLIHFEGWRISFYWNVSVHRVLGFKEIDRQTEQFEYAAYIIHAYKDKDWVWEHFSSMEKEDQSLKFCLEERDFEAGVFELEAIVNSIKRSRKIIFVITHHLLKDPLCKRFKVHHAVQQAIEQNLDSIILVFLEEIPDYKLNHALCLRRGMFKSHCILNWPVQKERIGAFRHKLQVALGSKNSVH
Put plainly: Agonistic activity on hTLR3 cells (HEK BLUE, QUANTI-Blue OD650). Particulars: 24 h, transfection with RNAiMAX, maximum concentration 200 nM, read-out: EC50. The format is cell-based. How it is done:
as §1, §2
10 μL of 0.5 μM BLOCK-iT™ Alexa Fluor® Red Fluorescent Control was added into 2 transfection positive control wells.
as §3, §4
7) Compound activity detection: 20 μL of cell supernatant was taken from each well and added into an experimental plate containing 180 μL of QUANTI-Blue™ reagent and then incubated for 1 h at 37° C., followed by detecting an absorbance values at 650 nm (OD650) using the multifunctional microplate reader Flexstation III.
as §5

As to “Conjugate 2: Double-stranded RNAi analog against AGT, D01 GalNAc ligand on sense strand; sense SEQ ID NO: 6, antisense SEQ ID NO: 2 containing Z (sense mA*mU*fCfCmAfCfAfAmUmGmAmGmAfGmUmAmCmA-{D01}; antisense CUCACAUGUACNCUCAUUGUGGAUGACGA; antisense: chemistry not given here; antisense strand modified, includes nucleotide analog Z, further chemistry not fully specified)”, the cytotoxic concentration (CC50) (in general, the concentration giving 50% cytotoxicity) in series [1] was greater than 200 nM. Besides, in series [2], the “AGT mRNA expression of mouse liver after administration/before administration, Average” value turned out to be 3%; the “AGT mRNA expression of mouse liver after administration/before administration” value was 2% (2×) and 3% and 4%. Also, the EC50 – broadly, the midpoint of the concentration-response curve – in series [3] is greater than 200 nM.

For the substance “Conjugate 3: Double-stranded RNAi analog against AGT, D01 GalNAc ligand on sense strand; sense SEQ ID NO: 7, antisense SEQ ID NO: 2 containing Z (sense mA*mU*fCfCmAfCfAfAmUmGmAfGmAmGmUmAmCmA-{D01}; antisense CUCACAUGUACNCUCAUUGUGGAUGACGA; antisense: chemistry not given here; antisense strand modified, includes nucleotide analog Z, further chemistry not fully specified)”, the half-maximal cytotoxic concentration (CC50) in series [1] is greater than 200 nM. In series [2], the “AGT mRNA expression of mouse liver after administration/before administration, Average” value is listed as 3%; the “AGT mRNA expression of mouse liver after administration/before administration” value is 3% (2×) and 2% (2×). Further, the half-maximal effective concentration (EC50) in series [3] was greater than 200 nM.
